Measurements from ChEMBL document CHEMBL4806963, “Antagonistic peptides for frizzled-1 and frizzled-2” (2013).
Activity calls are given as the source filed them. The calls are words filed in the database; no cut-off is given here. Where a SMILES comes first, the peptide text is derived from it.

What was measured:
[1] = biological target: Frizzled-1 (Rattus norvegicus) (UniProt Q08463); assay: Agonist activity at rat frizzled-1 expressed in African green monkey COS7 cells by luciferase reporter gene assay; type: cell-based
[2] = biological target: Frizzled-2 (Homo sapiens) (UniProt Q14332); assay: Antagonist activity at Wnt3a-stimulaed human frizzled-2 expressed in human HEK293superTOP flash cells incubated for 24 hrs by luciferase reporter gene assay; type: functional, cell-based; conditions: HEK293, filed as antagonist
[3] = biological target: Frizzled-2 (Homo sapiens) (UniProt Q14332); assay: Antagonist activity at frizzled-2 (unknown origin) expressed in rat C-FIT cells assessed as inhibition of Wnt3a-stimulated cell differentiation changes by measuring alpha-smooth muscle actin gene expression at 10 nM by quantitative RT-PCR analysis; type: functional, cell-based; conditions: filed as antagonist
[4] = biological target: Frizzled-2 (Homo sapiens) (UniProt Q14332); assay: Antagonist activity at Wnt3a-stimulaed frizzled-2 (unknown origin) expressed in human HEK293superTOP flash cells at 1 nM incubated for 24 hrs by luciferase reporter gene assay (reference value: 0%); type: functional, cell-based; conditions: HEK293, filed as antagonist
[5] = biological target: Frizzled-1 (Rattus norvegicus) (UniProt Q08463); assay: Antagonist activity at rat frizzled-1 expressed in rat C-FIT cells assessed as inhibition of Wnt5a-stimulated blockade of migration at 10 nM incubated for 48 hrs and measured for 24 hrs following the scratch by scratch wound healing assay; type: cell-based; conditions: filed as antagonist, time 72.0 hrs
[6] = test system: Mus musculus; assay: Cardioprotective activity against myocardial infarction Swiss mouse model assessed as increase in alpha-SMA gene expression in heart at 6 ug/kg/day, sc via osmotic pumps for 5 weeks by qPCR analysis; type: functional, organism-based; conditions: dose 6.0 µg/kg/day
[7] = test system: Mus musculus; assay: Cardioprotective activity against myocardial infarction Swiss mouse model assessed as increase in alpha-SMA protein expression in heart at 6 ug/kg/day, sc via osmotic pumps for 5 weeks by western blot analysis; type: functional, organism-based; conditions: dose 6.0 µg/kg/day
[8] = test system: Mus musculus; assay: Cardioprotective activity against myocardial infarction Swiss mouse model assessed as reduction in collagen level in infarct area at 6 ug/kg/day, sc via osmotic pumps for 5 weeks by immunohistochemical staining analysis; type: functional, organism-based; conditions: dose 6.0 µg/kg/day
[9] = biological target: Frizzled-1 (Rattus norvegicus) (UniProt Q08463); assay: Antagonist activity at Wnt3a-stimulated rat frizzled-1 expressed in CHO cells incubated for 24 hrs by luciferase reporter gene assay relative to control; type: cell-based; conditions: filed as antagonist, concentration not given here
[10] = biological target: Frizzled-1 (Homo sapiens) (UniProt Q9UP38); assay: Antagonist activity at Wnt3a-stimulaed human frizzled-1 expressed in human HEK293superTOP flash cells incubated for 24 hrs by luciferase reporter gene assay; type: functional, cell-based; conditions: HEK293, filed as antagonist
[11] = biological target: Frizzled-2 (Rattus norvegicus) (UniProt Q08464); assay: Agonist activity at rat frizzled-2 expressed in human HEK293superTOP flash cells by luciferase reporter gene assay; type: cell-based; conditions: HEK293
[12] = biological target: T1, Frizzled-4 (Homo sapiens) (UniProt Q9ULV1); assay: Antagonist activity at Wnt3a-stimulaed human frizzled-4 expressed in human HEK293superTOP flash cells at 10 nM incubated for 24 hrs by luciferase reporter gene assay; type: functional, cell-based; conditions: HEK293
T1 sequence (whole entry): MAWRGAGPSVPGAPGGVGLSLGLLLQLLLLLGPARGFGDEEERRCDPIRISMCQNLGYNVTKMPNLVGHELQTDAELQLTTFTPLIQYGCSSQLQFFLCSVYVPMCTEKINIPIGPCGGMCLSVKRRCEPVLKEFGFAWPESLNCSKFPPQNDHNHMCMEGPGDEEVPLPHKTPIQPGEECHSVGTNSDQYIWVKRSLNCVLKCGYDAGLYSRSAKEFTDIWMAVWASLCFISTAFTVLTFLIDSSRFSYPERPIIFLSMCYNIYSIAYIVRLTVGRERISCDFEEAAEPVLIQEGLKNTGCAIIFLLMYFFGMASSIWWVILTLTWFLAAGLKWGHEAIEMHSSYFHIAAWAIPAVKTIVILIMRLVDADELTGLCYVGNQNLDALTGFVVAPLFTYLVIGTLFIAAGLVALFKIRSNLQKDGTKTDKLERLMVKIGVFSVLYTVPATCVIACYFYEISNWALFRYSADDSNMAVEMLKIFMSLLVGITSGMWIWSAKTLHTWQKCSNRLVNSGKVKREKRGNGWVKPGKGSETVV

[13] = biological target: Frizzled-2 (Mus musculus) (UniProt Q9JIP6); assay: Antagonist activity at Wnt3a-stimulaed mouse frizzled-2 expressed in human HEK293superTOP flash cells incubated for 24 hrs by luciferase reporter gene assay; type: cell-based; conditions: HEK293, filed as antagonist
[14] = test system: Mus musculus; assay: Cardioprotective activity against myocardial infarction Swiss mouse model assessed as increase in amount of blood vessels in heart at 6 ug/kg/day, sc via osmotic pumps for 5 weeks by immunohistochemical staining analysis; type: functional, organism-based; conditions: dose 6.0 µg/kg/day
[15] = biological target: Frizzled-1 (Homo sapiens) (UniProt Q9UP38); assay: Antagonist activity at Wnt3a-stimulaed frizzled-1 (unknown origin) expressed in human HEK293superTOP flash cells at 1 nM incubated for 24 hrs by luciferase reporter gene assay (reference value: 0%); type: functional, cell-based; conditions: HEK293, filed as antagonist
[16] = biological target: Frizzled-1 (Rattus norvegicus) (UniProt Q08463); assay: Antagonist activity at rat frizzled-1 expressed in rat C-FIT cells assessed as inhibition of Wnt3a-stimulated blockade of migration at 10 nM incubated for 48 hrs and measured for 24 hrs following the scratch by scratch wound healing assay; type: cell-based; conditions: filed as antagonist, time 72.0 hrs
[17] = biological target: Frizzled-5 (Homo sapiens) (UniProt Q13467); assay: Antagonist activity at Wnt3a-stimulaed human frizzled-5 expressed in human HEK293superTOP flash cells at 10 nM incubated for 24 hrs by luciferase reporter gene assay; type: functional, cell-based; conditions: HEK293
[18] = biological target: Frizzled-1 (Homo sapiens) (UniProt Q9UP38); assay: Antagonist activity at frizzled-1 (unknown origin) expressed in rat C-FIT cells assessed as inhibition of Wnt3a-stimulated cell differentiation changes by measuring alpha-smooth muscle actin gene expression at 10 nM by quantitative RT-PCR analysis; type: functional, cell-based; conditions: filed as antagonist
[19] = biological target: Frizzled-2 (Homo sapiens) (UniProt Q14332); assay: Antagonist activity at frizzled-2 (unknown origin) expressed in human HEK293superTOP flash cells incubated for 24 hrs by luciferase reporter gene assay; type: functional, cell-based; conditions: HEK293
[20] = biological target: Frizzled-1 (Mus musculus) (UniProt O70421); assay: Antagonist activity at Wnt3a-stimulaed mouse frizzled-1 expressed in human HEK293superTOP flash cells incubated for 24 hrs by luciferase reporter gene assay; type: cell-based; conditions: HEK293, filed as antagonist
[21] = biological target: Frizzled-1 (Homo sapiens) (UniProt Q9UP38); assay: Antagonist activity at frizzled-1 (unknown origin) expressed in rat C-FIT cells assessed as inhibition of Wnt3a-stimulated blockade of migration at 10 nM incubated for 48 hrs and measured for 24 hrs following the scratch by scratch wound healing assay; type: functional, cell-based; conditions: filed as antagonist, time 72.0 hrs
[22] = biological target: Frizzled-2 (Homo sapiens) (UniProt Q14332); assay: Antagonist activity at frizzled-2 (unknown origin) expressed in rat C-FIT cells assessed as inhibition of Wnt3a-stimulated blockade of migration at 10 nM incubated for 48 hrs and measured for 24 hrs following the scratch by scratch wound healing assay; type: functional, cell-based; conditions: filed as antagonist, time 72.0 hrs
[23] = test system: Mus musculus; assay: Cardioprotective activity against myocardial infarction Swiss mouse model assessed as increase in myofibroblast number at 6 ug/kg/day, sc via osmotic pumps for 5 weeks by immunohistochemical staining analysis; type: functional, organism-based; conditions: dose 6.0 µg/kg/day
[24] = biological target: Frizzled-5 (Homo sapiens) (UniProt Q13467); assay: Antagonist activity at Wnt3a-stimulaed frizzled-5 (unknown origin) expressed in human HEK293superTOP flash cells incubated for 24 hrs by luciferase reporter gene assay; type: functional, cell-based; conditions: HEK293
[25] = biological target: Frizzled-2 (Homo sapiens) (UniProt Q14332); assay: Antagonist activity at frizzled-2 (unknown origin) expressed in rat C-FIT cells assessed as inhibition of Wnt5a-stimulated cell differentiation changes by measuring alpha-smooth muscle actin gene expression at 10 nM by quantitative RT-PCR analysis; type: functional, cell-based; conditions: filed as antagonist
[26] = test system: Mus musculus; assay: Cardioprotective activity against myocardial infarction Swiss mouse model assessed as reduction in wet lung weight at 6 ug/kg/day, sc via osmotic pumps for 5 weeks; type: functional, organism-based; conditions: dose 6.0 µg/kg/day
[27] = biological target: Frizzled-1 (Rattus norvegicus) (UniProt Q08463); assay: Agonist activity at rat frizzled-1 expressed in CHO cells by luciferase reporter gene assay; type: cell-based
[28] = biological target: Frizzled-1 (Rattus norvegicus) (UniProt Q08463); assay: Antagonist activity at Wnt3a-stimulated rat frizzled-1 expressed in African green monkey COS7 cells incubated for 24 hrs by luciferase reporter gene assay relative to control; type: cell-based; conditions: filed as antagonist, concentration not given here

Sequence of Frizzled-2 (Homo sapiens) (Q14332 24-565 limits assumed): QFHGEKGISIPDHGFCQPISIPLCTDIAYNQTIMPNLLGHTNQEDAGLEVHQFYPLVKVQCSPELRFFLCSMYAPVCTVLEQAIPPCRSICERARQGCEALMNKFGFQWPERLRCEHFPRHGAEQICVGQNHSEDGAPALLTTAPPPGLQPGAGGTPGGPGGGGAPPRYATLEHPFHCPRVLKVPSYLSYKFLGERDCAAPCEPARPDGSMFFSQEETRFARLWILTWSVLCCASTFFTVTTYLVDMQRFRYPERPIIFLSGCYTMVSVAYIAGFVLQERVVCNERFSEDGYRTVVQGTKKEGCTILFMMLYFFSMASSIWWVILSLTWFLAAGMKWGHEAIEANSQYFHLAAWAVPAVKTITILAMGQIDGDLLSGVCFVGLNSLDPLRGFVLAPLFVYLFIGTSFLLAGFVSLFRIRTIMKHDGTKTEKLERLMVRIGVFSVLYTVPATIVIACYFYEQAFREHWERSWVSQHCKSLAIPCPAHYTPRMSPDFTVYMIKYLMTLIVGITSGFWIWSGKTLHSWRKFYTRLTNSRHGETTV
Sequence of Frizzled-1 (Homo sapiens) (Q9UP38 70-647 limits assumed): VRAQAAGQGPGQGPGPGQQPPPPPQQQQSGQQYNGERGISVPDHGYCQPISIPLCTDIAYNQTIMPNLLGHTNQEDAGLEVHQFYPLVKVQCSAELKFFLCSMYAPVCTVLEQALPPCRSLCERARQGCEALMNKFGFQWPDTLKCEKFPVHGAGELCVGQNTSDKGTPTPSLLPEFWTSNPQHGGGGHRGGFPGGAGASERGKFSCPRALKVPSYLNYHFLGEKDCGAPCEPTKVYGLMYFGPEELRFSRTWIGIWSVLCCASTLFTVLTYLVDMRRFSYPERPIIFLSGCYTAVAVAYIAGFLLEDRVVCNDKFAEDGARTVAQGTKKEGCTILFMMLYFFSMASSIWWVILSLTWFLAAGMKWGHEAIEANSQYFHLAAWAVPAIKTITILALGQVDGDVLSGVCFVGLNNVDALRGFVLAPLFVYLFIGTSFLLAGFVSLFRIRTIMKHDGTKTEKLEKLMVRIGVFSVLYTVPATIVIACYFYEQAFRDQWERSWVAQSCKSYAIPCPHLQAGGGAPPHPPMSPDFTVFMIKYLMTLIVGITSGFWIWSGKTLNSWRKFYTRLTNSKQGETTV
Sequence of Frizzled-1 (Rattus norvegicus) (Q08463 whole entry): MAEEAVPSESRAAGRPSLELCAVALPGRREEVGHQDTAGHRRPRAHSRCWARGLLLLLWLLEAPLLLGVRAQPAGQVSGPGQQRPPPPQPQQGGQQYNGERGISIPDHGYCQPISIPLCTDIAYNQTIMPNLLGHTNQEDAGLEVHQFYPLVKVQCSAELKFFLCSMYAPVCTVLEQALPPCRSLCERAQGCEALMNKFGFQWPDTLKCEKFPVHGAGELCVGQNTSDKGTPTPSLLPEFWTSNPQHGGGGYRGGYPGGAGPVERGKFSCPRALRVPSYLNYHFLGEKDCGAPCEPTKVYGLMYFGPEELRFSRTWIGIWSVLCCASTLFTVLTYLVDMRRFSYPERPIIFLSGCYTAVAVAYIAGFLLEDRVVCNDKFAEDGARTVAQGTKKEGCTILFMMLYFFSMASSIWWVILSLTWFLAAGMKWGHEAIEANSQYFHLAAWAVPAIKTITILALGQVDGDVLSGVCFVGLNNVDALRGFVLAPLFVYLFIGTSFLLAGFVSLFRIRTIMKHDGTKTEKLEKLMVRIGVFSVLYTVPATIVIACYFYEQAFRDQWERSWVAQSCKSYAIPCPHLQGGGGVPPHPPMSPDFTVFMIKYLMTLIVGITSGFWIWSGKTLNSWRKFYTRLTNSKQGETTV
Sequence of Frizzled-5 (Homo sapiens) (Q13467 whole entry): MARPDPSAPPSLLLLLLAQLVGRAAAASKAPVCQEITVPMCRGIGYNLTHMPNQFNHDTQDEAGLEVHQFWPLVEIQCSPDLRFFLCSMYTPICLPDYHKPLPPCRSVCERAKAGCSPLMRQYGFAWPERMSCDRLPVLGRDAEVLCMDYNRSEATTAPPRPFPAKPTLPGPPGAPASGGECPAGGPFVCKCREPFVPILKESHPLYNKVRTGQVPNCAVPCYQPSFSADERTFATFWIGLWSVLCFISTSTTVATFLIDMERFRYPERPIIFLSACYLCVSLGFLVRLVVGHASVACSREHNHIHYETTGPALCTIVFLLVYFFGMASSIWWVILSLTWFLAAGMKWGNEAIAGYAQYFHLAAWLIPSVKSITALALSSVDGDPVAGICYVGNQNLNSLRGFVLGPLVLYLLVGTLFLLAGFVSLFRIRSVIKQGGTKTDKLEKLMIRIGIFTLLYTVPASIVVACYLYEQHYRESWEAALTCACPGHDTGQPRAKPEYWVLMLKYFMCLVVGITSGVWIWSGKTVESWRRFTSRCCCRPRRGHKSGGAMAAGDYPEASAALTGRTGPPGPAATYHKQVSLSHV
Sequence of Frizzled-1 (Mus musculus) (O70421 whole entry, looked up): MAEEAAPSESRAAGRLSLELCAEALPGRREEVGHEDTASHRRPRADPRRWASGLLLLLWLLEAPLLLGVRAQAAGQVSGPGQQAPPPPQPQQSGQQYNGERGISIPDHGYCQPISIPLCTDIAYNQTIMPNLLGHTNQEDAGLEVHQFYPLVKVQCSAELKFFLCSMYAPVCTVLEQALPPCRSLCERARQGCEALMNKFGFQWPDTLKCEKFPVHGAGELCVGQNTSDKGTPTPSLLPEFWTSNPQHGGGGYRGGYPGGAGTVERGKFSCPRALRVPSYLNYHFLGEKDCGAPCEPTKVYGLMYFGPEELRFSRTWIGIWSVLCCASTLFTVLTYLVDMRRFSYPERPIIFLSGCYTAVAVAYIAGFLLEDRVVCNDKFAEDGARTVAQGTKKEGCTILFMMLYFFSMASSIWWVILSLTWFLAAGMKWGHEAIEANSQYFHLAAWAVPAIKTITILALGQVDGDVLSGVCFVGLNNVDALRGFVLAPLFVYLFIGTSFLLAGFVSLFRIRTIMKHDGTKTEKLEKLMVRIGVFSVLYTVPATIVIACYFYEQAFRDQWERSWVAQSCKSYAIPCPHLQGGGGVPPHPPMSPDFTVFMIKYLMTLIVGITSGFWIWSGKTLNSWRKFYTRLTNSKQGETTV
Sequence of Frizzled-2 (Mus musculus) (Q9JIP6 whole entry, looked up): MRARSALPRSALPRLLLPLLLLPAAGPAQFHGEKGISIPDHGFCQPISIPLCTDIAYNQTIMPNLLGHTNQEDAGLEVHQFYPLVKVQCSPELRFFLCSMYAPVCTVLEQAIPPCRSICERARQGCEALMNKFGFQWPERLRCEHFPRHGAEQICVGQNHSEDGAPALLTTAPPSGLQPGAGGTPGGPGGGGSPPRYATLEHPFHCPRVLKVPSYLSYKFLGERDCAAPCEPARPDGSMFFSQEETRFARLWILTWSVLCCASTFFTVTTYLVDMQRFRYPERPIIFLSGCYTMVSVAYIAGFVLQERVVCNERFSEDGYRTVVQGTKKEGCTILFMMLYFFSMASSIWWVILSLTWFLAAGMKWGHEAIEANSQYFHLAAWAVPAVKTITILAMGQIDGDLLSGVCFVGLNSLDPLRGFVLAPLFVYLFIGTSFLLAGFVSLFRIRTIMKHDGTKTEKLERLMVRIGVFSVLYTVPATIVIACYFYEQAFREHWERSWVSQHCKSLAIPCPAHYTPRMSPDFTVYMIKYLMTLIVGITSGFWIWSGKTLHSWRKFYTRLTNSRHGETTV
Sequence of Frizzled-2 (Rattus norvegicus) (Q08464 29-570 limits assumed): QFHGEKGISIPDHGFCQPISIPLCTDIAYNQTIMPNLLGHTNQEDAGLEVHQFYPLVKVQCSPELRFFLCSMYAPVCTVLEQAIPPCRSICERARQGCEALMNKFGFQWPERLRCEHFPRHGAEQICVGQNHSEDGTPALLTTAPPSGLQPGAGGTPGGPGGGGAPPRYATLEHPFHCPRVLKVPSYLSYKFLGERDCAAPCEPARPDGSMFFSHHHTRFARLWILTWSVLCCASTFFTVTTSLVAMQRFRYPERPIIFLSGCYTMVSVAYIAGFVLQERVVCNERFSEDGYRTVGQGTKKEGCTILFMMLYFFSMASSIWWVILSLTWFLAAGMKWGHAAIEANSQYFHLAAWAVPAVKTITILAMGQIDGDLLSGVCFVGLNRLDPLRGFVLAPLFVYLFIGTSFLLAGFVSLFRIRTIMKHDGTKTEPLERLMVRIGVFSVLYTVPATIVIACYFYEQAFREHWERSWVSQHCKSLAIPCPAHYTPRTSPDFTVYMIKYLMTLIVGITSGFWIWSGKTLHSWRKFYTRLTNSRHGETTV

CSCC[C@H](NC(=O)CNC(=O)[C@H](CCC(=O)O)NC(=O)[C@H](CO)NC(=O)[C@@H](NC(=O)[C@H](CCCCN)NC(=O)[C@H](CC(N)=O)NC(=O)[C@H](CS)NC(C)=O)[C@@H](C)O)C(=O)N[C@@H](CC(=O)O)C(=O)NCC(=O)N[C@@H](CS)C(=O)N[C@@H](CCC(=O)O)C(=O)N[C@@H](CC(C)C)C(N)=O (Ac-CNKTSEGMDGCEL-NH2)
Activity [1]: inactive | inhibition [2]: Active | inhibition [3]: 100% | inhibition [4]: 61.2% | inhibition [5]: 100% | Activity [6]: Active | Activity [7]: Active | Activity [8]: Active | inhibition [9]: 100% | inhibition [10]: Active | Activity [11]: inactive | inhibition [12]: inactive | inhibition [13]: Active | Activity [14]: Active | inhibition [15]: 18% | inhibition [16]: 100% | inhibition [17]: inactive | inhibition [18]: 100% | inhibition [19]: inactive | inhibition [20]: Active | inhibition [21]: 100% | inhibition [22]: 100% | Activity [23]: Active | inhibition [24]: inactive | inhibition [25]: 100% | Activity [26]: Active | Activity [27]: inactive | inhibition [28]: 100%
